The subject of one experiment is Adult cats. The experiment in a line: Nasal airway resistance (NAR) after aerosolized Compound 48/80 in anesthetized cats. In kind it is in vivo. From the text:
Adult cats are anesthetized with intraperitoneal injections of sodium pentobarbital. The right femoral artery and vein are cannulated for measurement of blood pressure with a pressure transducer, and for the administration of drugs. The animals are paralyzed with intravenous gallamine triethiodide and subsequently mechanically ventilated with room air, using an animal ventilator. After isolation of the cervical […], a cuffed endotracheal tube is advanced rostrally into the posterior nasopharynx and inflated to form an air-tight seal, allowing continuous measurement of pressure changes within the nasal cavity. The right nasal airway is occluded with dental impression compound, and humidified air is passed through the left nasal airway at about 1.7 liters per minute. By means of pressure transducers, nasal airway pressure and insufflation pressure can be derived and electronically recorded.
Nasal airway resistance (NAR) is determined by dividing the pressure within the nasal cavity (expressed in centimeters of water) by the air flow rate (expressed in liters per minute). Measurements with 18 subject animals yield an average baseline NAR of 2.6.
The known histamine releaser "Compound 48/80" (the condensation product of N-methyl-p-methoxyphenethylamine with formaldehyde, sold by Sigma Chemical Company, St. Louis, Missouri, USA), as a 1.0 percent solution in 0.9 percent aqueous saline solution, is aerosolized into the air stream for 2 minutes to induce an increased NAR. This effect is used to study the decongestant effects of various test substances, administered to the animals intravenously 10 minutes prior to the introduction of Compound 48/80. These substances include 0.9 percent aqueous saline (normal saline "Vehicle"), phenylpropanolamine hydrochloride at 1.0 mg/Kg of the free drug, thioperamide maleate at 10 mg/Kg of the free drug and chlorpheniramine maleate at 0.8 mg/Kg of the free drug, all of the drug compounds being in solution in 0.9 percent aqueous saline.
The experiment of the preceding example is repeated, but the intravenous drugs are varying amounts of thioperamide (administered as the maleate), in solution together with a constant 0.8 mg/Kg of chlorpheniramine ("CPA," administered as the maleate).
The experiment of preceding Example 1 is repeated, but the intravenous drug administered is clobenpropit in varying amounts, either alone or in solution together with a constant 0.8 mg/Kg of chlorpheniramine ("CPA," administered as the maleate).
To test the statement in U.S. Patent 5,217,986 that verongamine itself has decongestant activity, an experiment similar to that of preceding Example 1, but with a different vehicle, is conducted. The following results are obtained:
The experiment of preceding Example 3 is conducted, using loratadine as the antihistaminic compound at 3 mg/Kg, administered in a solution ("Vehicle") which is 30 percent Dimethylsulfoxide, 40 percent Ethanol and 30 percent normal saline, and using thioperamide as the H3 receptor antagonist at 10 mg/Kg.

For the next experiment, the target named is T1, histamine H3 receptor (Cavia porcellus, UniProt Q9JI35).
T1 construct: determined by a guinea pig brain membrane assay; from tissue; host or cells: guinea pig brain membranes
T1 sequence (Q9JI35 whole entry): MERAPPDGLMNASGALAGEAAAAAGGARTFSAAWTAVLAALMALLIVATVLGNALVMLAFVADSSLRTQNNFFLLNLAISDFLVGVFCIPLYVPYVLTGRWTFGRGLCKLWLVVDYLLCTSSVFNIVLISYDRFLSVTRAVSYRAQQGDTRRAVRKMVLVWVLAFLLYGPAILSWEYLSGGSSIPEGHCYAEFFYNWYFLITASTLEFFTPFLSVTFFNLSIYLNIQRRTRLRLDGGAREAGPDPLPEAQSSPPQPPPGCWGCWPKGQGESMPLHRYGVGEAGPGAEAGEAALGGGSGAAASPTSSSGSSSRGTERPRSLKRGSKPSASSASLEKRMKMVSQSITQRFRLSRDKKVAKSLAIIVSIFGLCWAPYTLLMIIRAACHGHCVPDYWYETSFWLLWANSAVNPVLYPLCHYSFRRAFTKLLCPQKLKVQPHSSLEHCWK
Description: Guinea pig brain membrane binding assay (displacement of radiolabeled N-alpha-methylhistamine, Korte et al.). The source says:
A particularly useful screening assay measures binding to sites in guinea pig brain membranes. This test is described in detail by Korte et al., "Characterization and Tissue Distribution of H3 Histamine Receptors in Guinea Pigs by N^α -Methylhistamine," in Biochemical and Biophysical Research Communications, Vol. 168, pages 979-986 (1990), and quantifies the displacement of bound radiolabeled N" - methylhistamine from tissues by candidate compounds. Results are expressed as "Ki" values, in nanoMolar (nM) units, which values can be considered as being dissociation constants for the H3 antagonist on the H3 receptor system, or an index of antagonist affinity for the receptor. The present inventors have evidence that decongestant activity in their invention for a given H3 antagonist concentration can be predicted to increase as the Ki value obtained from the assay for an antagonist decreases. In general, Ki values less than about 200 nM are considered necessary for an agent to be useful as an H3 antagonist in the invention.
The affinity of various histamine H3 receptor antagonists for binding sites is determined by a guinea pig brain membrane assay, according to the procedure of Korte et al., Biochemical and Biophysical Research Communications, Vol. 168, pages 979-986 (1990).

[1] abbreviates: Example 1, i.v. 10 minutes prior to Compound 48/80, single drugs in 0.9 percent saline: thioperamide 10 mg/Kg, chlorpheniramine 0.8 mg/Kg, phenylpropanolamine 1.0 mg/Kg, NAR = cm of water / liters per minute, Vehicle 9.1.

Where two headings read alike, the source gives them in different places.

For orientation: Ki means the dissociation constant of the complex between target and ligand, obtained from inhibition or displacement. Regarding `COc1ccc(C/C(=N\O)C(=O)NCCc2c[nH]cn2)cc1Br` [Verongamine, verongamine], in the experiment on Adult cats (Example 5, Verongamine 10 mg/Kg, different vehicle, Vehicle 7.8), the NAR is given as 7.3. Besides, at histamine H3 receptor (guinea pig brain membranes, read-out: Ki), the Ki amounted to 280 nM.

In the experiment on Adult cats (setting [1]), `S=C(NC1CCCCC1)N1CCC(c2cnc[nH]2)CC1` [Thioperamide, thioperamide] gave an NAR of 6.7. On histamine H3 receptor, this compound came in with a Ki of 12 nM.

In turn, `NC(=NCc1ccc(Cl)cc1)SCCCc1cnc[nH]1` [Clobenpropit, clobenpropit] showed an NAR with Adult cats (Example 3, Clobenpropit 1.0 mg/Kg alone i.v., Vehicle 9.1) of 8.5. The compound also gave a Ki on histamine H3 receptor of 0.1 nM.

Take `CC(N)C(O)c1ccccc1` (stereo not drawn) [Phenylpropanolamine, phenylpropanolamine]: the NAR with Adult cats (setting [1]) was found to be 2.9.

Regarding `CCOC(=O)N1CCC(=C2c3ccc(Cl)cc3CCc3cccnc32)CC1` [Loratadine, loratadine], the NAR with Adult cats (Example 6, loratadine 3 mg/Kg, thioperamide 10 mg/Kg, vehicle 30 percent Dimethylsulfoxide, 40 percent Ethanol, 30 percent normal saline, Vehicle 12.6) was found to be 10.2.

In the experiment with Adult cats (setting [1]), `CN(C)CCC(c1ccc(Cl)cc1)c1ccccn1` (stereo not drawn) [Chlorpheniramine, chlorpheniramine] returned an NAR of 6.0.

The values above are taken from patent EP0920315B1, “TREATMENT OF UPPER AIRWAY ALLERGIC RESPONSES WITH A COMBINATION OF HISTAMINE RECEPTOR ANTAGONISTS” (SCHERING CORPORATION, priority 1996, dated 1998).
